What all share (format): in vivo
Assay [1] is described as follows: Urine excretion in normal rats (without induction of increased urine excretion). The settings on record: no saline induction, dose 30 mg/kg po, increase as a function of dose. The method, then: (§1) A model for measuring the effect on urine excretion is described in Lipschitz et al., J. Pharmacol. Exp. Ther. 1943; 79: 97-110. The substance to be investigated is given to rats who had previously been denied food overnight while being given free access to water. Increased urine excretion is provoked by simultaneous intraperitoneal injection of 100 ml/kg of physiological saline solution. Immediately after administration of the substance, the bladder was emptied by gentle massage of the abdomen above the bladder. The rats are subsequently kept in metabolism cages in which the urine is collected over a period of 6 hours.
The effect on urine excretion in normal rats is tested analogously (i.e. without induction of increased urine excretion, see above). N-Methyl-N-[(1S)-1-phenyl-2-((3S)-3-hydroxypyrrolidin-1-yl)ethyl]-2,2-diphenylacetamide increases urine excretion as a function of dose, with 5.5 times the amount of urine being excreted at only 30 mg/kg po.

The nature of assay [2]: Urine excretion in rats with increased urine excretion provoked by intraperitoneal saline (Lipschitz model). The settings on record: rats fasted overnight, 100 ml/kg physiological saline i.p., urine collected over 6 hours, dose 100 mg/kg; increase as a function of dose. On the procedure:
as §1

The subject of assay [3] is irritable bladder in female apes. Kind of assay: Animal model for irritable bladder induced by direct infusion of acetone into the bladder (Ghoniem et al.). The settings on record: doses of 3, 10 and 30 mg/kg. On the procedure: The classical animal model for irritable bladder is described in Ghoniem et al., Neurourol. Urodyn. 1995; 14: 657-65. In female apes, irritable bladder is induced by direct infusion of acetone into the bladder. The animals are kept in metabolism cages designed for continuous monitoring of miction (urination) of the animals. The frequency, emptying volumes and flow rate of the urine are measured continuously via urine flow meters. […] Furthermore, considerable changes in bladder physiology are observed in the first week after acetone infusion: the bladder performance, measured in ml/cm, drops by almost 95%. The emptying behaviour also changes considerably, with the frequency of emptying increasing greatly with the picture of frequent dribbling and at the same time with an emptying volume reduced by about 70%. […] These changes in behaviour observed in apes are consistent with the clinical picture of considerable discomfort and pain.

Regarding `CN(C(=O)C(c1ccccc1)c1ccccc1)[C@H](CN1CC[C@H](O)C1)c1ccccc1` [N-methyl-N-[(1S)-1-phenyl-2-((3S)-3-hydroxypyrrolidin-1-yl)ethyl]-2,2-diphenylacetamide], the “amount of urine excreted (multiple)” value is given as 5.5 times in assay [1] and “twice the amount of urine” in assay [2]. Besides, the “effect on bladder function” value in assay [3] is reported as “normalises bladder function in a dose-dependent manner”.

The record behind these values is patent US20040157913A1, “Kappa opiate agonists for the treatment of bladder diseases” (priority 2001, published 2004).
